Reference: US10543254B2, “Composition containing neuropeptide Y for inhibiting side effects of anticancer agents” (KYUNGPOOK NATIONAL UNIVERSITY INDUSTRY-ACADEMIC COOPERATION …, priority 2014, dated 2020)

What was measured:
[1] = system: cisplatin-induced bone marrow injury; test: Complete blood count 4 weeks after bone marrow transplantation; type: in vivo, mice; details: for HCT (hematocrit) / Hgb (hemoglobin) / MCH (mean corpuscular hemoglobin) / MCHC (mean corpuscular hemoglobin concentration) / MCV (mean cell volume) / MPV (mean platelet volume) / PLT (platelets) / RBC (red blood cell) / RDW-CV (red cell volume distribution width-coefficient of variation) / WBC (white blood cell): complete blood count 4 weeks after transplantation, groups PBS or cisplatin / PBS or NPY
Text: (§1) The mice were lethally irradiated (10 Gy, two split doses) and injected with 1×10^6 BM from CD45.1^+ (BoyJ) mice. After 4 weeks, the mice were sacrificed, and bone marrow and blood were obtained for analysis.
(§2) Next, to evaluate further whether NPY treatment prevents cisplatin-induced mouse death and injury of BM, bone marrow mononuclear cells (BMNCs) were transplanted into cisplatin-treated mice with or without NPY treatment after lethal irradiation. FIG. 2H illustrates an experimental design for verifying whether NPY protects a Th^+ fiber from cisplatin-induced bone marrow injury and whether to accelerate posttransplant bone marrow recovery.
Table 1 is a diagram illustrating an increase in blood cell recovery in NPY-treated mice after cisplatin treatment. A complete blood count was performed by targeting PBS or cisplatin-treated mice after 4 weeks after transplantation and after NPY treatment.

[2] = system: cisplatin-induced neuropathy; test: Hot-plate (heated-pad) test of sensory neuropathy after seven cycles of cisplatin with or without NPY; type: in vivo, mice
Method: (§3) Cisplatin (Enzo; 10 mg per kg body weight once per week) was used to induce SNS injury. Mice received i.p. injections of cisplatin for 7 weeks as described. The mice were euthanized after 2 weeks after the last injection of cisplatin (for full bone marrow recovery).
(§4) To assess neuroprotection from cisplatin, mice were injected i.p. with NPY (Bachem, H-6375) daily during the 7-week cisplatin treatment period.
For measuring effects of different treatments on sensory responses, a hot-plate test was performed.
A hot plate (Leica) was maintained at 50° C. and each mouse was positioned on the end of the heated surface, first nociception, that is, a time until jumping or paw licking was measured. A cut-off time was set as 60 seconds. For the measurement, the heated surface was cleaned with a detergent and ethanol and a temperature was maintained at 50° C.
Next, control, Lyz2-cre; Y1^fl/fl, or Col1a1-cre; Y1^fl/fl mice were treated with seven cycles of cisplatin for the induction of neuropathy. In some animals, NPY was administered during cisplatin chemotherapy. […]
FIG. 2B illustrates a quantitative analysis result of sympathetic neuropathy (after 2 weeks after the last cisplatin injection) in a control group, Lyz2-cre; Y1^fl/fl or Col1a1-cre; Y1^fl/fl mice treated with cisplatin alone or cisplatin and NPY (n=6-10 mice per group, i.p). […]

[3] = system: cisplatin-induced bone marrow injury; test: Bone marrow transplantation after lethal irradiation in cisplatin-treated mice with or without NPY: survival and bone marrow recovery; type: in vivo
Method: as §3, §4, §1, §2
FIG. 2I illustrates a survival result of mice of each group (n=10-15 mice per group).
FIG. 2J is a diagram illustrating the number of BMNCs (left side), a percentage of LSK cells (middle), and LT-HSCs (right side) in BM of WT mice treated with PBS, cisplatin or NPY, which are evaluated after 4 weeks after transplanting bone marrow (n=5-6 mice per group).
FIG. 2K illustrates a percentage of nestin-positive and CD31^+ endothelial cells in the femur of each group.

[4] = system: cisplatin-induced sympathetic nervous system (SNS) injury; test: Quantification of Th+ fibers and nestin-positive and CD31+ endothelial cells in bone marrow after cisplatin with or without NPY; type: in vivo, mice
Method: as §3, §4
Next, control, Lyz2-cre; Y1^fl/fl, or Col1a1-cre; Y1^fl/fl mice were treated with seven cycles of cisplatin for the induction of neuropathy. In some animals, NPY was administered during cisplatin chemotherapy. FIG. 2A is an experimental design for determining an effect of the Y1 receptor in the macrophages or osteoblasts in cisplatin-induced neuropathy, after NPY treatment.
Further, FIG. 2E is a diagram illustrating a quantitative analysis of a Th^+ fiber in BM of each group (n=5-6 mice per group).
FIG. 2F is a diagram illustrating the number (n=5-6 mice per group) of nestin-positive and CD31^+ endothelial cells per femoral region of each group.

[5] = NPY i.p. daily during 7-week cisplatin treatment, cisplatin-treated control or Col1a1-cre, Y1fl/fl mice

Molecule | HCT (hematocrit) [1] | Hgb (hemoglobin) [1] | MCH (mean corpuscular hemoglobin) [1] | MCHC (mean corpuscular hemoglobin concentration) [1] | MCV (mean cell volume) [1] | MPV (mean platelet volume) [1] | PLT (platelets) [1] | RBC (red blood cell) [1] | RDW-CV (red cell volume distribution width-coefficient of variation) [1] | WBC (white blood cell) [1] | sensory neuropathy (hot-plate latency) ([2]; 2 weeks after the last injection, cisplatin 10 mg per kg i.p. once per week for 7 weeks) | blood cell recovery ([1]; NPY-treated mice after cisplatin treatment, 4 weeks after transplantation) | numbers of nestin-positive and CD31+ endothelial cells in the femur ([3]; cisplatin-treated mice after transplantation) | bone marrow function after transplantation (BMNCs, LSK cells, LT-HSCs) ([3]; cisplatin-treated mice, 4 weeks after transplanting bone marrow) | mouse survival ([3]; cisplatin-treated mice, lethal irradiation and BMNC transplantation) | number of nestin-positive and CD31+ endothelial cells [4, 5] | reduced density of Th+ fibers in BM [4, 5] | protection of Th+ fibers and perivascular niche cells ([4]; cisplatin-treated Lyz2-cre, Y1fl/fl mice (no Y1 receptor in macrophages)) | sensory neuropathy (hot-plate latency) [2, 5]
N.N.[Cl][Pt][Cl] [Cisplatin, cisplatin, reference compound] | 53.5 ± 6.1% | 12.8 ± 0.8 g/dL | 17.1 ± 0.8 pg | 27.0 ± 4.2 g/dL | 66.1 ± 5.2 fL | 11.3 ± 2.3 fL | 165.7 ± 42.4 m/mm^3 | 6.1 ± 0.8 m/mm^3 | 19.4 ± 0.3% | 2.2 ± 0.4 m/mm^3 | had sensory neuropathy | – | – | – | – | – | – | – | –
neuropeptide Y [NPY] | 49.5 ± 9.3% | 14.4 ± 0.9 g/dL | 17.35 ± 1.4 pg | 33.2 ± 7.6 g/dL | 58.2 ± 8.8 fL | 11.4 ± 2.8 fL | 219.3 ± 65.8 m/mm^3 | 8.4 ± 0.4 m/mm^3 | 19.4 ± 0.8% | 5.3 ± 0.4 m/mm^3 | – | increase | restored | restored | enhanced | improved | improved | did not show NPY-mediated protection | improved
